According to article PMC12514245, “Impaired migration and lung invasion of human melanoma by a novel small molecule targeting the transmembrane domain of death receptor p75^NTR” (EMBO Molecular Medicine, 2025):
“And” between values parts separate entries of the source, which are not always exact repeats. Equal values may be shown once. Read-outs that look alike come from different tables or passages of the source.

Experiments:
α2β3 integrin TMD = assay: AraTM assay, α2β3 integrin TMD; type: cell-based; details: for GFP/OD630, A2b, mean: N=3
[1] = molecular target: T1, Matrix-2 protein (M2) TMD (Influenza A virus, UniProt P06821); type: cell-based; details: for GFP/OD630, M2, mean: N=3
T1 construct: unrelated TMDs from α2β3 integrin and Matrix-2 protein (M2); expressed in transfected cells
T1 sequence (P06821 23-43 limits assumed): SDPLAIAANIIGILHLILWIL

[2] = type: in vivo; details: oral gavage 200 mg/kg daily (5 days on, 2 days off), 3 weeks; female SCID
human 70W cells = assay: Lung invasion after intravenous injection of 70W cells; details: 70W cells lose p75ntr expression in vivo
Description: A875 NT cells that both wound areas decreased from 1 to ~0.75 in 24 hours. But in […]
Do the in vitro assays recapitulate melanoma invasiveness? If not, is it possible the ideal compounds were missed from the screening in melanoma cells (Figure 6)? […] This assay simply scores the relative orientation/conformation of the interacting receptor TMDs in isolation form the rest of the receptor. The wound healing assay is a rather simplistic assay of cell motility. The in vitro assay that better recapitulates what may happen in vivo is the Boyden chamber migration/invasion assay.
2. In Figure 7A, co-IP experiment requires input and IgG control to show positivity and specificity. In Figure 7B, quantification using the ratio of Triton-insoluble fascin to total fascin will be much more solid than only showing the western blot.
The input control was added in 7A and quantification in 7B (also in 7A).
"NGF treatment strongly stimulated the association of fascin with p75NTR".
The labels in the Western blot shown in this panel were incorrect. They have now been […]
4. Validation of results in another human cell line
During the past year, multiple tests were done by intravenous injection of human 70W cells, […]
followed by monitoring cells in the lungs in the presence and absence of drug treatment. […]
in vivo environment. […]

[3] = molecular target: T2, fascin/p75^NTR interaction (Homo sapiens, UniProt P08138); assay: Co-immunoprecipitation of fascin with p75NTR in A875 cells; type: cell-based; details: 1 μM; NGF 100 ng/ml
T2 construct: endogenous in cells; host or cells: A875-NT (and A875 sh-p75NTR knock-down control)
T2 sequence (P08138 29-427): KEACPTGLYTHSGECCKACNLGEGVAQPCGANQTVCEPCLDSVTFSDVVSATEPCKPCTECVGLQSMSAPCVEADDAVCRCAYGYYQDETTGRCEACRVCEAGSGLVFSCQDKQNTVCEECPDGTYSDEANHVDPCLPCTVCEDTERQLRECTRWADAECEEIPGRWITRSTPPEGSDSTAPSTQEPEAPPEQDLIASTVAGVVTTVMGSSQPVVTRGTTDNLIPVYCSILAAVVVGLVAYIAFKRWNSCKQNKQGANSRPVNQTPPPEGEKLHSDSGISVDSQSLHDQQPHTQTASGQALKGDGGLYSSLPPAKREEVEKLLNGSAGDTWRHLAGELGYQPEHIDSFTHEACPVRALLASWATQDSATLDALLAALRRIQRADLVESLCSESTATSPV
Description: For co-immunoprecipitation analysis of p75^NTR/fascin interactions, A875 sh-p75^NTR and A875-NT cells were plated in a 10 cm tissue culture dish at a confluency of 3 × 10^6 cells/dish in normal growth media. Twenty-four hours after plating, the cells were treated with 1 μM 4A22 and NGF (100 ng/ml) for 12 h prior to harvest and lysis in lysis buffer (50 mM Tris/HCl pH 7.5, 1 mM EDTA, 270 mM Sucrose, 1% (v/v) Triton X-100, 0.1% (v/v) 2-mercaptoethanol and 60 mM n-Octyl-β-D glucopyranoside) containing protease inhibitor cocktail. The cellular extracts were then centrifuged at 4 °C top speed on a benchtop centrifuge for 1 min and the supernatant was collected. For immunoprecipitation, A875 cell extracts were incubated for 16 h at 4 °C on a rotating wheel with 0.8 μg of anti-p75^NTR antibody (ANT-007, Alomone) and then incubated with Sepharose protein-G beads (GE Healthcare). The beads were collected by brief centrifugation (2 min, 2500 rpm, 4 °C), washed three times with 1 ml of Wash Buffer (with composition same as the lysis buffer). After the last wash, pelleted beads were aspirated off the wash buffer followed by addition of Laemmli sample buffer and analysis by SDS–PAGE followed by Western Blot using anti-fascin antibody (MA5-11483, Invitrogen).

## Oc1ccc(-c2cncc(Nc3ccc(Br)c(Cl)c3)n2)cc1 [Div17E5]
α2β3 integrin TMD; Div17E5 1 μM
  GFP/OD630, A2b, single replicates: 111 and 92 and 98
  GFP/OD630, A2b, mean: 100
α2β3 integrin TMD; Div17E5 2.5 μM
  GFP/OD630, A2b, single replicates: 89 and 116 and 95
  GFP/OD630, A2b, mean: 100
α2β3 integrin TMD; Div17E5 5 μM
  GFP/OD630, A2b, single replicates: 95 and 87 and 112
  GFP/OD630, A2b, mean: 98
α2β3 integrin TMD; Div17E5 10 μM
  GFP/OD630, A2b, single replicates: 81 and 96 and 87
  GFP/OD630, A2b, mean: 88
α2β3 integrin TMD; Div17E5 20 μM
  GFP/OD630, A2b, single replicates: 90 and 98 and 82
  GFP/OD630, A2b, mean: 90
α2β3 integrin TMD; Div17E5 50 μM
  GFP/OD630, A2b, single replicates: 79 and 86 and 94
  GFP/OD630, A2b, mean: 86
[1]; Div17E5 1 μM
  GFP/OD630, M2, single replicates: 96 and 90 and 113
  GFP/OD630, M2, mean: 100
[1]; Div17E5 2.5 μM
  GFP/OD630, M2, single replicates: 94 (2×) and 111
  GFP/OD630, M2, mean: 100
[1]; Div17E5 5 μM
  GFP/OD630, M2, single replicates: 89 and 109 and 92
  GFP/OD630, M2, mean: 97
[1]; Div17E5 10 μM
  GFP/OD630, M2, single replicates: 90 and 105 and 99
  GFP/OD630, M2, mean: 98
[1]; Div17E5 20 μM
  GFP/OD630, M2, single replicates: 109 and 89 and 98
  GFP/OD630, M2, mean: 99
[1]; Div17E5 50 μM
  GFP/OD630, M2, single replicates: 112 and 92 and 109
  GFP/OD630, M2, mean: 104

## Cc1cccc(-c2cncc(Nc3ccc(Br)c(Cl)c3Cl)n2)c1C [Np75-4A22]
[2]
  mortality, clinical signs and gross histological pathology: No mortality or adverse clinical signs
Human 70W cells
  number of metastasized 70W cells in the lungs: had no effect on the number of metastasized cells
[3]
  NGF-stimulated fascin/p75NTR interaction: completely suppressed the effect of NGF
